Test [1] deals with T1, TRPV4 channel receptors (Homo sapiens, UniProt Q9HBA0).
T1 construct: obtained using this method in human articular chondrocytes; endogenous in cells; host or cells: human articular chondrocytes
Put plainly: Ca2+ influx through TRPV4 channel receptors, Fura-2 fluorescence on FlexStation, human articular chondrocytes. The test is classed as cell-based. To be noted: Fura-2, FlexStation. The source says: (§1) Ca^2+ influx mediated through TRPV4 channel receptors can be measured using articular chondrocytes from such species as, but not limited to, human, rat, canine, rabbit, monkey, and bovine, using standard techniques in the art such as, but not limited to, Fura-2 (Invitrogen/Molecular Probes, Eugene, Oreg.) fluorescence using a FlexStation (manufactured by Molecular Devices, Sunnyvale, Calif.). Table 1 lists biological data for several representative compounds obtained using this method in bovine articular chondrocytes.
Table 2 lists biological data for several representative compounds obtained using this method in human articular chondrocytes.
(§2) All exemplary compounds of the present invention were assessed using at least one of the biological assays presented above. Compounds presented in the Examples had EC50 values of about 0.01 μM to 10 μM as measured by Flex Station using bovine and/or human articular chondrocytes.

The target in test [2] is T2, TRPV4 channel receptors (Bos taurus, UniProt A0A8F4X677).
T2 construct: obtained using this method in bovine articular chondrocytes; endogenous in cells; host or cells: bovine articular chondrocytes
T2 sequence (A0A8F4X677 1-871): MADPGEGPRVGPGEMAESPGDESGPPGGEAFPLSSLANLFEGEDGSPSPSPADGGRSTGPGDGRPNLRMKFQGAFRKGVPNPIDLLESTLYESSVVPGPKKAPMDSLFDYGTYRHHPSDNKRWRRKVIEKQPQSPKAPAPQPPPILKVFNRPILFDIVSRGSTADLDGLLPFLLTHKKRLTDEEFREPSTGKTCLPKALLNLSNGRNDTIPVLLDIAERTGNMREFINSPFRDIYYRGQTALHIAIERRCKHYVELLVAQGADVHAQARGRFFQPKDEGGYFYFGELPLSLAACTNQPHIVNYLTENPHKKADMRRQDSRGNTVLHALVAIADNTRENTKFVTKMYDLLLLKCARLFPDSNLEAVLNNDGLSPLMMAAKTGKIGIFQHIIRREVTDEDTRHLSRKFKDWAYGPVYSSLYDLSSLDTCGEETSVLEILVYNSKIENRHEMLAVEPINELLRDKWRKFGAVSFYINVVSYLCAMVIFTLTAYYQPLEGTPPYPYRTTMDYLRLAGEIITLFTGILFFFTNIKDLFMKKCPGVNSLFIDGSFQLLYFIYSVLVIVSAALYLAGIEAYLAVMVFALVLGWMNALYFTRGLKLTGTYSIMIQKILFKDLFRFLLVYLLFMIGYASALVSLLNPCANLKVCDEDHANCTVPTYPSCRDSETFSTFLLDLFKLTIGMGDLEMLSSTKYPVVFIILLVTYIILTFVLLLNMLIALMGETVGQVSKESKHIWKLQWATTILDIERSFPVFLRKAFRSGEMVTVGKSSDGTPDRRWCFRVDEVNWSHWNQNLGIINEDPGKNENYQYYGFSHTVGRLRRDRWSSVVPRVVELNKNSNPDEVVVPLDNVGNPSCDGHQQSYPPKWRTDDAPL
Put plainly: Ca2+ influx through TRPV4 channel receptors, Fura-2 fluorescence on FlexStation, bovine articular chondrocytes. The test is classed as cell-based. Particulars: Fura-2, FlexStation.
Excerpt: as §1, §2

Structures are written as SMILES.

T1 sequence (Q9HBA0 whole entry): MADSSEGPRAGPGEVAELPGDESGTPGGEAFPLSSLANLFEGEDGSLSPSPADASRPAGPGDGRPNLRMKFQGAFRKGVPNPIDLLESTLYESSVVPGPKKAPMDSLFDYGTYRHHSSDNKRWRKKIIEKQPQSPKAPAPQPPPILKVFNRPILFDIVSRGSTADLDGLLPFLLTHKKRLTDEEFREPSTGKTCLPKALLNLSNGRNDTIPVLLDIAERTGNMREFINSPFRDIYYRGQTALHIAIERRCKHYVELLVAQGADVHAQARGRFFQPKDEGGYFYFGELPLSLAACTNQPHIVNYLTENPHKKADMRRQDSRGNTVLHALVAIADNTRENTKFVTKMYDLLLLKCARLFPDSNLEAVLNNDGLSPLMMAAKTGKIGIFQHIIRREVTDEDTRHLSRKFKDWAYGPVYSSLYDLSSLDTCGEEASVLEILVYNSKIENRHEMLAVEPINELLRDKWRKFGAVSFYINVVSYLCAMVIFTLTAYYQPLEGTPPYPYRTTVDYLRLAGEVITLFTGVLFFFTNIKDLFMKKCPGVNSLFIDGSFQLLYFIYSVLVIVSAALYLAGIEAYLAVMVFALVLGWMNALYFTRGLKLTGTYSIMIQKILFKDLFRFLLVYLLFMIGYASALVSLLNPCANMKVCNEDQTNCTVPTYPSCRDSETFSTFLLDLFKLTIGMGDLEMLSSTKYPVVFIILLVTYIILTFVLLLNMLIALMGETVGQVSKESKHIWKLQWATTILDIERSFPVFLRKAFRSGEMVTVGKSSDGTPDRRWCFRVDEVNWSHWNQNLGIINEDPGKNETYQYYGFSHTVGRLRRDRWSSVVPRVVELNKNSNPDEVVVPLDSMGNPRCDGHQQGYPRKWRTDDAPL

In the case of `CC(C)C[C@H](NC(=O)c1cc2ccccc2s1)C(=O)NCCCCNS(=O)(=O)c1ccc(Br)cc1Cl` [Example 3, N-((1S)-1-{[(4-{[(4-Bromo-2-chlorophenyl)sulfonyl]amino}butyl)amino]carbonyl}-3-methylbutyl)-1-benzothiophene-2-carboxamide], the half-maximal effective concentration (EC50) lay within 30 to 90 nM in test [1] and 30 to 60 nM in test [2].

As for `Cc1c(C(=O)N[C@@H](CC(C)C)C(=O)NCCCCNS(=O)(=O)c2ccc(Cl)cc2Cl)oc2cccnc12` [Example 6, N-((1S)-1-{[(4-{[(2,4-Dichlorophenyl)sulfonyl]amino}butyl)amino]carbonyl}-3-methylbutyl)-3-methylfuro[3,2-b]pyridine-2-carboxamide], the concentration giving a half-maximal response (EC50) in test [1] fell in the range of 100 to 1000 nM.

In the case of `CC(C)C[C@H](NC(=O)c1nc2ccccc2s1)C(=O)NCCCCNS(=O)(=O)c1ccc(F)cc1Cl` [Example 50, N-((1S)-1-{[(4-{[(2-Chloro-4-fluorophenyl)sulfonyl]amino}butyl)amino]carbonyl}-3-methylbutyl)-1,3-benzothiazole-2-carboxamide], the EC50 in test [1] lay within 1000 to 10000 nM.

Turning to `CC(C)C[C@H](NC(=O)c1cc2ccccc2s1)C(=O)NCCCCNS(=O)(=O)c1ccc(F)cc1Cl` [Example 5, N-((1S)-1-{[(4-{[(2-Chloro-4-fluorophenyl)sulfonyl]amino}butyl)amino]carbonyl}-3-methylbutyl)-1-benzothiophene-2-carboxamide], the half-maximal effective concentration (EC50) in test [2] was 70 to 100 nM.

These data come from patent publication US20090105259A1, “Acyclic 1,4-Diamines and Uses Thereof” (priority 2005, published 2009).
